Each block holds one compound with its values, some of them ahead of it.
What was measured:
[1] = In vivo radioactivity distribution experiment of 125I-labeled aurone derivatives in normal mice (Example 2, Table 15); conditions: tail vein
Protocol: Animals were decapitated at 2, 10, 30 or 60 min after the injection, and the blood was collected. Then, major organs were removed, and weights and radioactivities thereof were measured.
In vivo radioactivity distribution experiments of ^125I-labeled aurone derivatives were performed using 5-week-old normal mice.

[2] = In vivo radioactivity biodistribution experiment in normal mice (Example 1, Table 13); design: species or system ddY mice
Protocol: ^125I-labeled compounds were diluted with 10% ethanol-containing physiological saline. […] After their blood was collected, organs were removed, and the weights and radioactivities thereof were measured.
When any of the aurone derivatives was used, sufficient radioactivity to perform imaging of intracerebral amyloid migrated to the brain from the early stage of injection (1.7-4.6% ID/g). […] It was also shown that, in any of the aurone derivatives, in vivo radioactivity behavior is discharged mainly from the liver to the bile duct and the intestinal tract.

Radioactivity distribution, Blood, Mean ([1]; 2 min after injection): 4.97 % ID/g | Radioactivity distribution, Blood, Mean ([1]; 10 min after injection): 3.88 % ID/g | Radioactivity distribution, Blood, Mean ([1]; 30 min after injection): 2.38 % ID/g | Radioactivity distribution, Blood, Mean ([1]; 60 min after injection): 1.24 % ID/g | Radioactivity distribution, Brain, Mean ([1]; 2 min after injection): 4.51 % ID/g | Radioactivity distribution, Brain, Mean ([1]; 10 min after injection): 1.49 % ID/g | Radioactivity distribution, Brain, Mean ([1]; 30 min after injection): 0.24 % ID/g | Radioactivity distribution, Brain, Mean ([1]; 60 min after injection): 0.09 % ID/g
SMILES: O=C1/C(=C/c2ccc(OCCO)cc2)Oc2ccc([125I])cc21 [[125I]26]

Radioactivity distribution, Blood, Mean ([1]; 2 min after injection): 3.61 % ID/g | Radioactivity distribution, Blood, Mean ([1]; 10 min after injection): 5.18 % ID/g | Radioactivity distribution, Blood, Mean ([1]; 30 min after injection): 1.11 % ID/g | Radioactivity distribution, Blood, Mean ([1]; 60 min after injection): 0.68 % ID/g | Radioactivity distribution, Brain, Mean ([1]; 2 min after injection): 3.69 % ID/g | Radioactivity distribution, Brain, Mean ([1]; 10 min after injection): 1.53 % ID/g | Radioactivity distribution, Brain, Mean ([1]; 30 min after injection): 0.38 % ID/g | Radioactivity distribution, Brain, Mean ([1]; 60 min after injection): 0.16 % ID/g
SMILES: O=C1/C(=C/c2ccc(OCCOCCO)cc2)Oc2ccc([125I])cc21 [[125I]27]

Radioactivity distribution, Blood, Mean ([1]; 2 min after injection): 4.75 % ID/g | Radioactivity distribution, Blood, Mean ([1]; 10 min after injection): 2.70 % ID/g | Radioactivity distribution, Blood, Mean ([1]; 30 min after injection): 1.13 % ID/g | Radioactivity distribution, Blood, Mean ([1]; 60 min after injection): 0.55 % ID/g | Radioactivity distribution, Brain, Mean ([1]; 2 min after injection): 2.81 % ID/g | Radioactivity distribution, Brain, Mean ([1]; 10 min after injection): 0.84 % ID/g | Radioactivity distribution, Brain, Mean ([1]; 30 min after injection): 0.18 % ID/g | Radioactivity distribution, Brain, Mean ([1]; 60 min after injection): 0.08 % ID/g
SMILES: O=C1/C(=C/c2ccc(OCCOCCOCCO)cc2)Oc2ccc([125I])cc21 [[125I]28]

Biodistribution of radioactivity, Blood ([2]; 2 min after injection): 3.16 (0.82) % injected dose per gram | Biodistribution of radioactivity, Blood ([2]; 10 min after injection): 1.51 (0.23) % injected dose per gram | Biodistribution of radioactivity, Blood ([2]; 30 min after injection): 0.95 (0.19) % injected dose per gram | Biodistribution of radioactivity, Blood ([2]; 60 min after injection): 0.70 (0.60) % injected dose per gram | Biodistribution of radioactivity, Brain ([2]; 2 min after injection): 1.69 (0.43) % injected dose per gram | Biodistribution of radioactivity, Brain ([2]; 10 min after injection): 0.54 (0.12) % injected dose per gram | Biodistribution of radioactivity, Brain ([2]; 30 min after injection): 0.11 (0.05) % injected dose per gram | Biodistribution of radioactivity, Brain ([2]; 60 min after injection): 0.03 (0.02) % injected dose per gram | Biodistribution of radioactivity, Heart ([2]; 2 min after injection): 3.84 (1.04) % injected dose per gram | Biodistribution of radioactivity, Heart ([2]; 10 min after injection): 1.06 (0.10) % injected dose per gram | Biodistribution of radioactivity, Heart ([2]; 30 min after injection): 0.37 (0.09) % injected dose per gram | Biodistribution of radioactivity, Heart ([2]; 60 min after injection): 0.25 (0.12) % injected dose per gram | Biodistribution of radioactivity, Intestine ([2]; 2 min after injection): 1.59 (0.51) % injected dose per gram | Biodistribution of radioactivity, Intestine ([2]; 10 min after injection): 4.70 (1.46) % injected dose per gram | Biodistribution of radioactivity, Intestine ([2]; 30 min after injection): 11.67 (3.56) % injected dose per gram | Biodistribution of radioactivity, Intestine ([2]; 60 min after injection): 9.02 (3.14) % injected dose per gram | Biodistribution of radioactivity, Kidney ([2]; 2 min after injection): 7.26 (2.18) % injected dose per gram | Biodistribution of radioactivity, Kidney ([2]; 10 min after injection): 7.00 (1.49) % injected dose per gram | Biodistribution of radioactivity, Kidney ([2]; 30 min after injection): 4.93 (1.52) % injected dose per gram | Biodistribution of radioactivity, Kidney ([2]; 60 min after injection): 2.43 (1.17) % injected dose per gram | Biodistribution of radioactivity, Liver ([2]; 2 min after injection): 6.87 (2.18) % injected dose per gram | Biodistribution of radioactivity, Liver ([2]; 10 min after injection): 5.16 (0.73) % injected dose per gram | Biodistribution of radioactivity, Liver ([2]; 30 min after injection): 2.76 (0.40) % injected dose per gram | Biodistribution of radioactivity, Liver ([2]; 60 min after injection): 1.86 (0.83) % injected dose per gram | Biodistribution of radioactivity, Lung ([2]; 2 min after injection): 6.71 (1.39) % injected dose per gram | Biodistribution of radioactivity, Lung ([2]; 10 min after injection): 1.76 (0.29) % injected dose per gram | Biodistribution of radioactivity, Lung ([2]; 30 min after injection): 0.97 (0.20) % injected dose per gram | Biodistribution of radioactivity, Lung ([2]; 60 min after injection): 0.75 (0.33) % injected dose per gram | Biodistribution of radioactivity, Pancreas ([2]; 2 min after injection): 2.83 (0.75) % injected dose per gram | Biodistribution of radioactivity, Pancreas ([2]; 10 min after injection): 0.77 (0.17) % injected dose per gram | Biodistribution of radioactivity, Pancreas ([2]; 30 min after injection): 0.29 (0.14) % injected dose per gram | Biodistribution of radioactivity, Pancreas ([2]; 60 min after injection): 0.16 (0.05) % injected dose per gram | Biodistribution of radioactivity, Spleen ([2]; 2 min after injection): 1.45 (0.56) % injected dose per gram | Biodistribution of radioactivity, Spleen ([2]; 10 min after injection): 0.74 (0.10) % injected dose per gram | Biodistribution of radioactivity, Spleen ([2]; 30 min after injection): 0.48 (0.10) % injected dose per gram | Biodistribution of radioactivity, Spleen ([2]; 60 min after injection): 0.43 (0.14) % injected dose per gram | Biodistribution of radioactivity, Stomach ([2]; 2 min after injection): 0.68 (0.33) % injected dose per organ | Biodistribution of radioactivity, Stomach ([2]; 10 min after injection): 1.06 (0.66) % injected dose per organ | Biodistribution of radioactivity, Stomach ([2]; 30 min after injection): 0.48 (0.09) % injected dose per organ | Biodistribution of radioactivity, Stomach ([2]; 60 min after injection): 0.96 (0.46) % injected dose per organ
SMILES: COc1ccc(/C=C2\Oc3ccc([125I])cc3C2=O)cc1 [[^125I]17]

Biodistribution of radioactivity, Blood ([2]; 2 min after injection): 3.14 (0.73) % injected dose per gram | Biodistribution of radioactivity, Blood ([2]; 10 min after injection): 2.77 (0.28) % injected dose per gram | Biodistribution of radioactivity, Blood ([2]; 30 min after injection): 1.75 (0.38) % injected dose per gram | Biodistribution of radioactivity, Blood ([2]; 60 min after injection): 0.87 (0.28) % injected dose per gram | Biodistribution of radioactivity, Brain ([2]; 2 min after injection): 3.07 (0.39) % injected dose per gram | Biodistribution of radioactivity, Brain ([2]; 10 min after injection): 1.48 (0.19) % injected dose per gram | Biodistribution of radioactivity, Brain ([2]; 30 min after injection): 0.37 (0.07) % injected dose per gram | Biodistribution of radioactivity, Brain ([2]; 60 min after injection): 0.14 (0.12) % injected dose per gram | Biodistribution of radioactivity, Heart ([2]; 2 min after injection): 6.23 (0.63) % injected dose per gram | Biodistribution of radioactivity, Heart ([2]; 10 min after injection): 2.57 (0.41) % injected dose per gram | Biodistribution of radioactivity, Heart ([2]; 30 min after injection): 0.98 (0.14) % injected dose per gram | Biodistribution of radioactivity, Heart ([2]; 60 min after injection): 0.42 (0.09) % injected dose per gram | Biodistribution of radioactivity, Intestine ([2]; 2 min after injection): 2.11 (0.75) % injected dose per gram | Biodistribution of radioactivity, Intestine ([2]; 10 min after injection): 6.12 (0.83) % injected dose per gram | Biodistribution of radioactivity, Intestine ([2]; 30 min after injection): 12.67 (2.13) % injected dose per gram | Biodistribution of radioactivity, Intestine ([2]; 60 min after injection): 14.87 (5.42) % injected dose per gram | Biodistribution of radioactivity, Kidney ([2]; 2 min after injection): 11.08 (2.96) % injected dose per gram | Biodistribution of radioactivity, Kidney ([2]; 10 min after injection): 11.22 (2.26) % injected dose per gram | Biodistribution of radioactivity, Kidney ([2]; 30 min after injection): 5.82 (1.11) % injected dose per gram | Biodistribution of radioactivity, Kidney ([2]; 60 min after injection): 2.43 (1.04) % injected dose per gram | Biodistribution of radioactivity, Liver ([2]; 2 min after injection): 6.05 (1.49) % injected dose per gram | Biodistribution of radioactivity, Liver ([2]; 10 min after injection): 6.63 (1.08) % injected dose per gram | Biodistribution of radioactivity, Liver ([2]; 30 min after injection): 4.23 (0.63) % injected dose per gram | Biodistribution of radioactivity, Liver ([2]; 60 min after injection): 4.45 (3.14) % injected dose per gram | Biodistribution of radioactivity, Lung ([2]; 2 min after injection): 6.69 (0.86) % injected dose per gram | Biodistribution of radioactivity, Lung ([2]; 10 min after injection): 3.14 (0.23) % injected dose per gram | Biodistribution of radioactivity, Lung ([2]; 30 min after injection): 1.62 (0.22) % injected dose per gram | Biodistribution of radioactivity, Lung ([2]; 60 min after injection): 0.80 (0.19) % injected dose per gram | Biodistribution of radioactivity, Pancreas ([2]; 2 min after injection): 5.28 (0.99) % injected dose per gram | Biodistribution of radioactivity, Pancreas ([2]; 10 min after injection): 2.65 (0.64) % injected dose per gram | Biodistribution of radioactivity, Pancreas ([2]; 30 min after injection): 0.92 (0.19) % injected dose per gram | Biodistribution of radioactivity, Pancreas ([2]; 60 min after injection): 0.36 (0.09) % injected dose per gram | Biodistribution of radioactivity, Spleen ([2]; 2 min after injection): 2.18 (0.48) % injected dose per gram | Biodistribution of radioactivity, Spleen ([2]; 10 min after injection): 1.36 (0.15) % injected dose per gram | Biodistribution of radioactivity, Spleen ([2]; 30 min after injection): 0.69 (0.14) % injected dose per gram | Biodistribution of radioactivity, Spleen ([2]; 60 min after injection): 0.42 (0.02) % injected dose per gram | Biodistribution of radioactivity, Stomach ([2]; 2 min after injection): 1.30 (0.43) % injected dose per organ | Biodistribution of radioactivity, Stomach ([2]; 10 min after injection): 2.53 (0.97) % injected dose per organ | Biodistribution of radioactivity, Stomach ([2]; 30 min after injection): 2.82 (1.88) % injected dose per organ | Biodistribution of radioactivity, Stomach ([2]; 60 min after injection): 2.26 (0.88) % injected dose per organ
SMILES: O=C1/C(=C/c2ccc(O)cc2)Oc2ccc([125I])cc21 [[^125I]20]
